In one experiment the target is T1, Peptide deformylase (Staphylococcus aureus subsp. aureus Mu50, UniProt P68825).
T1 sequence (P68825 whole entry): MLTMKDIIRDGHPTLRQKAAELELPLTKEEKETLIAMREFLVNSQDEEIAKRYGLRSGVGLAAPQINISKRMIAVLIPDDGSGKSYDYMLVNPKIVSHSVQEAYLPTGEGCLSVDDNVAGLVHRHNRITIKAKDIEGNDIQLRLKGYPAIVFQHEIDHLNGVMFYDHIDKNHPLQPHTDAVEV
Put plainly: Inhibition of Peptidyl deformylase (PDF).

Another experiment concerns Staphylococcus aureus. The experiment in a line: Antibacterial activity against Staphylococcus aureus (SAUR) 9218. The experiment is classed as functional.
Another experiment deals with Streptococcus pneumoniae. The experiment in a line: Antibacterial activity against Streptococcus pneumoniae (SPNE) 9912. The experiment is classed as functional.
For the next experiment, the system named is Escherichia coli. The experiment in a line: Antibacterial activity against Escherichia coli (ECOL) 6674. The experiment is classed as functional.
The subject of experiment [1] is Staphylococcus epidermidis. Put plainly: Antibacterial activity against Staphylococcus epidermidis (SEPI) 12084. Format: functional.

SMILES strings stand for the structures. pIC50: −log10 of the molar value. Values after ≈ are worked out from the molar mass of the structure shown.

Usually pIC50 stands for the negative decadic logarithm of the IC50, by convention in mol/L. Lower therefore signals a large IC50. In general, MIC refers to the lowest concentration that inhibits growth of the organism.

On Peptide deformylase, `NC(=O)C(NCc1cccc(C(F)(F)F)c1)c1cccc2ccccc12` (stereo unspecified) showed a pIC50 of less than 4.00. Also, the MIC against Staphylococcus aureus was 64 µg/mL (≈ 179 µM); with Streptococcus pneumoniae, 16 µg/mL (≈ 44.6 µM); in the experiment on Escherichia coli it was greater than 128 µg/mL; in experiment [1], 64 µg/mL (≈ 179 µM).

For `O=C(NO)N(CCc1cccc(C(F)(F)F)c1)c1cccc2ccccc12`, the MIC in the experiment on Staphylococcus aureus was 32 µg/mL (≈ 85.5 µM); in the experiment with Streptococcus pneumoniae it was 32 µg/mL (≈ 85.5 µM); in the experiment on Escherichia coli it was greater than 128 µg/mL; in experiment [1], 32 µg/mL (≈ 85.5 µM).

At Peptide deformylase, `O=C(CO)N(CCc1cccc(C(F)(F)F)c1)c1cccc2ccccc12` gave a pIC50 of less than 4.00. Also, the minimal inhibitory concentration (MIC) against Staphylococcus aureus is 32 µg/mL (≈ 85.7 µM); in the experiment on Streptococcus pneumoniae, 32 µg/mL (≈ 85.7 µM); against Escherichia coli it was greater than 128 µg/mL; in experiment [1] it was greater than 128 µg/mL.

`NNC(=O)C(NCc1cccc(C(F)(F)F)c1)c1cccc2ccccc12` (stereo unspecified): at Peptide deformylase, the pIC50 is 5.39. For the same molecule, the minimal inhibitory concentration (MIC) against Staphylococcus aureus was 64 µg/mL (≈ 171 µM); with Streptococcus pneumoniae, 32 µg/mL (≈ 85.7 µM); against Escherichia coli, greater than 128 µg/mL; in experiment [1] it was 128 µg/mL (≈ 343 µM).

Take `COc1cccc(C(NCc2cccc(C(F)(F)F)c2)C(=O)NO)c1` (stereo unspecified): the MIC (against Staphylococcus aureus; with Streptococcus pneumoniae; in the experiment on Escherichia coli; in experiment [1]) was greater than 128 µg/mL in each case.

With `O=C(Cc1ccc(-c2ccccc2)cc1)NO`, the negative logarithm of the IC50 (pIC50) against Peptide deformylase was less than 4.30. Besides, the MIC (against Staphylococcus aureus; in the experiment on Streptococcus pneumoniae; against Escherichia coli; in experiment [1]) was greater than 128 µg/mL in each case.

In turn, `O=C(NO)C(NCc1cccc(C(F)(F)F)c1)c1ccc(F)c(F)c1` (stereo unspecified) had a pIC50 at Peptide deformylase of 6.16. For the same molecule, the minimal inhibitory concentration (MIC) (with Staphylococcus aureus; against Streptococcus pneumoniae; against Escherichia coli; in experiment [1]) was greater than 128 µg/mL in each case.

`O=C(CS)N(CCc1cccc(C(F)(F)F)c1)c1cccc2ccccc12`: the pIC50 at Peptide deformylase was less than 4.00. The minimum inhibitory concentration (MIC) (against Staphylococcus aureus; with Streptococcus pneumoniae; with Escherichia coli; in experiment [1]) was greater than 128 µg/mL in each case.

Regarding `O=C(NO)C(NCc1cccc(C(F)(F)F)c1)c1cccc2ccccc12` (stereo unspecified), the MIC (against Staphylococcus aureus; against Streptococcus pneumoniae; in the experiment on Escherichia coli; in experiment [1]) was greater than 64 µg/mL in each case.

Consider `COc1cc(Cl)c(CC(=O)NO)cc1OC`, for which the MIC (against Staphylococcus aureus; with Streptococcus pneumoniae; with Escherichia coli; in experiment [1]) was greater than 32 µg/mL in each case.

In the case of `CC(=O)NO` [ACETOHYDROXAMIC ACID], the pIC50 at Peptide deformylase was less than 4.00. Moreover, the MIC (against Staphylococcus aureus; against Streptococcus pneumoniae; in the experiment with Escherichia coli; in experiment [1]) was greater than 128 µg/mL in each case.

Molecule `NNC(=O)N(CCc1cccc(C(F)(F)F)c1)c1cccc2ccccc12` showed a pIC50 against Peptide deformylase of less than 4.00. Also, the MIC (with Staphylococcus aureus; against Streptococcus pneumoniae; against Escherichia coli; in experiment [1]) was greater than 128 µg/mL each time.

Molecule `O=C(NO)C(NCc1cccc(C(F)(F)F)c1)c1ccccc1F` (stereo unspecified) gave a pIC50 against Peptide deformylase of 6.34. The MIC (with Staphylococcus aureus; against Streptococcus pneumoniae; against Escherichia coli; in experiment [1]) was greater than 128 µg/mL each time.

Take `O=C(O)C(NCc1cccc(C(F)(F)F)c1)c1cccc2ccccc12` (stereo unspecified): the pIC50 against Peptide deformylase is less than 4.00. For the same molecule, the MIC against Staphylococcus aureus was greater than 128 µg/mL; in the experiment with Streptococcus pneumoniae, 128 µg/mL (≈ 356 µM); in the experiment on Escherichia coli it was greater than 128 µg/mL; in experiment [1] it was greater than 128 µg/mL.

The record behind these values is ChEMBL document CHEMBL1134074, “Identification of novel potent hydroxamic acid inhibitors of peptidyl deformylase and the importance of the hydroxamic acid functionality on inhibition” (Bioorg Med Chem Lett, 2001).
